Test results from article PMC12974487, “Inhibition of FicD-mediated AMPylation and deAMPylation by isoprenoid diphosphates” (Proceedings of the National Academy of Sciences of the …, 2026).

Target: T1, FicD^L258D (Homo sapiens, UniProt Q9BVA6, L258D)
T1 construct: soluble ER luminal domain (residues 105 to 458) of wild-type human FicD and three mutants; 6xHis-Sumo (N, cleaved yes); made in house; host or cells: Rosetta(DE3) E. coli
T1 sequence (Q9BVA6 105-458 L258D): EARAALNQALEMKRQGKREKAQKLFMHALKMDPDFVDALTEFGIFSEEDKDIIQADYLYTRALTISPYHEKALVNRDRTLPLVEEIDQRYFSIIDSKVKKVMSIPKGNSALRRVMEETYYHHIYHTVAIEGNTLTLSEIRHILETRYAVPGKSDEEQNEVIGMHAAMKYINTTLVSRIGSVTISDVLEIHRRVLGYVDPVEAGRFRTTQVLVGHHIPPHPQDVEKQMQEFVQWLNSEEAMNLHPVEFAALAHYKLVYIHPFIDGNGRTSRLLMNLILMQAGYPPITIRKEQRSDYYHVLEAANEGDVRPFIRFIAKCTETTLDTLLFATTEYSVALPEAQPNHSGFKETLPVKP
Assay: MIDAS metabolite screen, FicD^L258D
Assay type: binding
Details: cutoff Q < 0.05 and |Log2 corrected fold change| > 2, metabolites 5 µM

Compound | MIDAS protein-metabolite interaction (enrichment/depletion)
CC(C)=CCC/C(C)=C/CC/C(C)=C/COP(=O)(O)OP(=O)(O)O [FPP, farnesyl-pyrophosphate] | significantly enriched
CC(C)=CCC/C(C)=C/COP(=O)(O)OP(=O)(O)O [GPP, geranyl-pyrophosphate] | significantly enriched
